Measurements reported in US20240415878A1, “Compositions and Methods for Modulating Mitochondrial Function” (Board of Regents, The University of Texas System, priority 2021, published 2024).

Legend:
HIF-1α = conditions: cell culture
From the text: HIF-1α is stabilized in Mrs2−/− mice. To examine the intrinsic role of Mrs2, Mrs2^−/− mice were challenged to LPS-induced inflammatory response. It was noticed that there was a barely detectable HIF-1α stabilization in control but a significant HIF-1α protein accumulation following LPS stimulation in Mrs2^−/− hepatocytes (Daw et al., 2020). […] It was envisioned that loss of Mrs2 in hepatocyte mitochondria might control metabolite fluxes that regulates HIF-1α stability under normoxic conditions. HIF-1α is the most commonly studied transcription factor that responds to oxygen tension and its stabilization controls numerous metabolic cascades, including glycolysis and oxidative phosphorylation (Kaelin and Ratcliffe, 2008; Lum et al., 2007; Semenza, 2013). A targeted metabolite screen was conducted to identify whether these metabolites potentially altered in Mrs2^−/− control HIF-1α stabilization. WT hepatocytes were treated with the PHD inhibitor FG-4952 for 6 hours in the presence or absence of metabolites (Buckley et al., 2012). […] Next it was explored whether citric acid mediated HIF-1α destabilization is a hydroxylation dependent mechanism by reconstitution of hydroxylation-dead mutant HIF-1α in COS-7 cells (Yan et al., 2007). […] Next tested the potency of citric acid and sodium citrate was tested. Hepatocytes isolated from WT or Mrs2^−/− mice were treated for 6 hours. HIF-1α stabilization was less affected by di- or tri-sodium citrate than by citric acid (FIG. 9G). […] The citric acid-mediated HIF-1α destabilization was intact in multiple chemical modalities (FIG. 9H) and the intracellular chelation of Mg^2+ ions suppressed FG-4952-induced HIF-1α stabilization (FIG. 9I). […] Furthermore, COS-7 cells were more sensitive to the HIF-1α stabilizing effect compared to hepatocytes. […] Next HIF-1α abundance was tested in liver tissues harvested from dietary cohorts. HIF-1α protein expression/stabilization was prominent in both Mrs2^−/− and Mrs2^−/− WD, whereas HIF-1α protein was nearly completely absent in WT WD (FIG. 9M). This supports the elevation of HIF-1α protein level as a key mechanism driving transcription changes in Mrs2^−/− WD livers.
Immunoblotting. Crushed tissues were homogenized in lysis buffer (ThermoFisher) on ice for one minute (20-30 strokes) using an automatic Dounce homogenizer set to 2000 RPM. Whole cell lysate was prepared in lysis buffer (Abcam) using 3 sets of 3-second sonication (power level 3) intervals on ice. Protein concentration was estimated using Pierce BCA assay kit and samples were prepared and heated for 90° C. for 5 minutes. Equal amounts of protein were loaded and separated on 4%-12% Bis-Tris polyacrylamide gel (Thermo Fisher Scientific), transferred to a PVDF membrane, blocked for 1-2 h using 5% fat free skim milk, washed and finally, probed with corresponding antibodies as specified below. Antibodies were from Cell Signaling Technology (HIF-1α and Hydroxy HIF-1α dilution 1:3000, MCU dilution 1.5000, MICU1 dilution 1:3000), Abcam Abcam (CPT-1a, CPT-2, OXPHOS cocktail dilution 1:3000), ZYMED Laboratories (β-actin; dilution 1:1,000), and Amersham (secondary antibodies conjugated with peroxidase). Development was done using X-ray film using a series of timed exposures and Image J was used for densitometric analysis on scanned film images.

WT hepatocytes = test: Mitochondrial oxygen consumption rate and extracellular acidification rate (Seahorse); type: cell-based, murine
Description: CPACC treatment enhances adipose browning and lowers whole body weight. Given the potent mMg^2+ uptake inhibiting properties and low toxicity of CPACC, we hypothesized that CPACC could mimic Mrs2^−/− cellular phenotype. WT hepatocytes isolated from over 12 months old mice were treated with 50 μM CPACC for 48 hours. Control and CPACC treated hepatocytes were stained with BODIPY and TMRE for intracellular tracing using confocal imaging. […] Next it was determined if CPACC treatment affects the mitochondrial oxygen consumption rate. Freshly isolated WT hepatocytes were treated with 5-25 μM concentrations of CPACC for 16 hours before measurement of oxygen consumption rate. […] Since it was observed an enhancement of basal OCR in CPACC treated hepatocytes, the extracellular acidification rate was measured in control and CPACC treated hepatocytes and found it to be higher in the CPACC condition indicating higher glycolytic activity (FIG. 11G). […]
Mitochondrial oxygen consumption rate. […] Oxygen consumption rate (OCR) was measured at 37° C. in an XF96 extracellular flux analyzer (Seahorse Bioscience, Agilent) calibrated using Seahorse XF Calibrant solution (Seahorse Bioscience, Agilent) in a CO2-free incubator overnight. […] Data was collected using Agilent Seahorse Wave 2.6.1 Desktop software and analyzed using GraphPad Prism version 8 (Irrinki et al., 2011; Tomar et al., 2016).

[NH2][Co]([NH2])([NH2])([NH2])([NH2])[Cl] [CPACC, chloropentaammine cobalt (III) chloride]
HIF-1α stabilization by the compound (HIF-1α): partial stabilization | maximal OCR (WT hepatocytes; 5-25 μM, 16 hours): without a significant effect | extracellular acidification rate (WT hepatocytes; treated versus control hepatocytes): higher
